From patent US11827543B2, “Method for continuous supply of superoxide-containing peracetate oxidant solution” (Clean Chemistry, Inc., priority 2014, dated 2023)

What was measured:
[1] = Half life and attenuation of oxidant solution in clean water; type: physicochemical
Experimental: Measurement of Sodium Peracetate Concentration: Measurement of sodium peracetate concentration is conducted by using a peroxide iodometric titration procedure from HACH. A known, volumetric aliquot of the peracetate-containing solution is diluted with a volume of distilled water where the total volume is convenient for titration between about 5 and 25 mL in a small glass beaker or flask. The diluted peracetate solution is stirred and 1 mL of ammonium molybdate reagent (HACH reagent 1933-32) is added. Sulfuric acid in the reagent converts the peracetate to peracetic acid. The contents of one Sulfite 1 Reagent packet (HACH reagent 2203-99) is added to the prepared solution and stirred for 5 minutes. The purple color that develops is titrated to a colorless endpoint with a standard sodium thiosulfate solution (for example, 0.0250 N sodium thiosulfate solution). The peroxide concentration is calculated based on the volume of the aliquot of peracetate-containing solution, the volume and concentration of sodium thiosulfate solution, two electron equivalents consumed for each molecule of peroxide and the molecular weight of the peroxide being measured.
Example 8: Half Life and Attenuation of Oxidant Solution: The minimum attenuation rate or degradation rate of the sodium peracetate oxidant solution was measured experimentally in clean water conditions. A sodium peracetate oxidant solution containing an initial concentration of 7.5% (wt/vol) sodium peracetate with an initial pH of about 10.1 was prepared by dissolving 0.34 g of sodium hydroxide (98%) in 10.0 mL of 2.85% wt/vol hydrogen peroxide (topical solution) in a 50 mL beaker. Then 1.22 g of triacetin (99%) was combined and the mixture rapidly stirred for 1-2 minutes at room temperature. […]
The sodium peracetate concentration was measured over time using the method described in Example 4. Concentrations were accurate to about ±2.4% of the values measured. The pH was measured using a high sodium electrode (Oakton model 35805-05) with three point calibration and automatic temperature correction.

[2] = pH of treated water; type: physicochemical
Experimental: (§1) Water parameters were measured by a variety of methods. The pH was measured using a high sodium electrode (Oakton model 35805-05) with three point calibration and automatic temperature correction. The ORP (oxidative-reductive potential) of solutions was measured using an Oakton model 35805-15 ORP probe calibrated to the standard hydrogen electrode (SHE) using Thermo/Orion ORP standard 967901. Sodium ion concentration was measured using a Cole-Parmer ion selective electrode, EW-27504-30, with two point calibration of a sodium standard solution of NaCl. Chloride ion concentration was measured using a Cole-Parmer ion selective electrode, SC-27504-08, with two point calibration of a chloride standard solution of NaCl. All measurements using HACH methods were measured using a HACH DR900 colorimeter. Calcium, magnesium and total hardness concentrations were measured using HACH method 8030. Sulfate concentration was measured using HACH method 10248. Aluminum concentration was measured using HACH method 8012. Iron concentration was measured using HACH method 10249 modified with a longer reaction time to minimize interferences from organic impurities. Total suspended solids (TSS) concentration was measured using HACH method 8006 modified for smaller volumes. Turbidity was measured using HACH method 8237. ATP (adenosine triphosphate) concentration was measured using the LuminUltra 2nd Generation metabolic ATP measurement technology with the LuminUltra Quench Gone-Organic Modified sampling method, a PhotonMaster Luminometer and LumiCalc software. Acid producing bacteria (ABP) and sulfate reducing bacteria (SRB) cell culture concentrations were measured with standard 1 mL serial dilutions using Intertek APB and SRB culture media, 1% salinity.

[3] = system: bacteria; experiment: ATP concentration (LuminUltra metabolic ATP measurement) in oxidant-treated water; type: cell-based
[4] = ORP (oxidative-reductive potential) measurement of solutions and treated water; type: physicochemical; settings: for ORP (mV vs SHE): early flowback water, Example 19, 1.7 mmol/L oxidant; for ORP (mV vs SHE), maximum: produced water
Experimental: Example 9: Hydrogen Peroxide Residual Concentration and interference. A sodium peracetate oxidant solution was produced according to the procedure in Example 4 and diluted to 2800 mg/L (28.5 mmol/L) with either distilled water, for clean water conditions, or tap water containing about 0.18 mg/L copper, which served as an activation catalyst. Some samples were spiked with 30 or 60 mg/L (0.88 or 1.76 mmol/L, respectively) hydrogen peroxide from a 1000 mg/L stock solution. […] The temperature of the samples was maintained at 25±2° C. with a heated water bath. The ORP response was monitored over time to observe the impact of adding low concentrations of hydrogen peroxide. The pH was measured using a high sodium electrode (Oakton model 35805-05) with three point calibration and automatic temperature correction. The ORP (oxidative-reductive potential) of solutions was measured using an Oakton model 35805-15 ORP probe calibrated to the standard hydrogen electrode (SHE) using Thermo/Orion ORP standard 967901.
as §1

[5] = system: acid producing bacteria (APB); experiment: Acid producing bacteria serial dilution culture (Intertek APB media); type: cell-based; settings: produced water, Example 17, 30 min contact, no grow back
Experimental: The water's color rapidly turned orange and the ORP increased to about 700 mV vs SHE. During the first 5 to 10 minutes of slow mixing there was some floc formation. After 20 minutes stirring was ceased and the flocculated solids were allowed to settle, however the water remained hazy orange. […] The ATP concentration was reduced by about 93% from the untreated water concentration and the bioassay results indicated at least 4 log reductions in acid producing and sulfate reducing bacteria relative to the untreated water's ATP concentration (approximately 1.8×10^6 microbial equivalents per mL).
as §1, with “ATP (adenosine triphosphate) concentration was measured using the LuminUltra 2nd Generation metabolic ATP measurement technology with the LuminUltra Quench Gone-Organic Modified sampling method, a PhotonMaster Luminometer and LumiCalc software.” left out

[6] = produced water, Example 17, 52 mg/L
[7] = produced water, Example 18, 0.30 mmol/L oxidant
[8] = Piceance produced water, pH 7.00, 22 °C, 500 mg/L initial dose

SMILES: CC(=O)O[O-].[Na+] [sodium peracetate oxidant, sodium peracetate]
- half-life ([1]; 7.5% (wt/vol) solution, 25 °C, clean water, initial pH 10.1): 1.33 to 1.42 h
- final pH of solution ([1]; 7.5% solution, 25 °C, at 265 min, initial pH 10.1): 7.3
- concentration of oxidant ([1]; within about 6 days' time): less than 5 mg/L
- pH ([2]; early flowback water, Example 19, 1.7 mmol/L oxidant, contact time 3 minutes): 6.83
- pH ([2]; early flowback water, Example 19, 1.7 mmol/L oxidant, contact time 13 minutes): 6.87
- pH ([2]; early flowback water, Example 19, 1.7 mmol/L oxidant, contact time 35 minutes): 6.88
- pH ([2]; early flowback water, Example 19, 1.7 mmol/L oxidant, contact time 90 minutes): 6.89
- pH ([2]; produced water (Denver-Julesburg), Example 17, 29 mg/L): 6.2
- pH ([2]; produced water, Example 17, 29 mg/L plus 5 mg/L floc aid (Polymer B-40)): 6.3
- pH [2, 6]: 5.9
- pH [2, 7]: 6.2
- rate of reduction of ATP concentration ([3]; early flowback water, Example 19, 1.7 mmol/L, ATP at 10, 30 and 60 minutes contact time): The sodium peracetate oxidant treated flowback water had a slightly greater rate of reduction of ATP concentration than chlorine dioxide.
- ATP reduction at 30 min CT ([3]; produced water, Example 17, 29 mg/L): 99.0%
- ATP reduction at 30 min CT ([3]; produced water, Example 17, 29 mg/L plus 5 mg/L floc aid): 99.6%
- ATP reduction at 30 min CT ([3]; produced water, Example 17, 29 mg/L plus 5 mg/L floc aid, listed as Sodium Peracetate Oxidant): 99.6%
- ATP (pg/mL), at 30 min CT ([3]; produced water, Example 17, 29 mg/L plus 5 mg/L floc aid, untreated 135): 0.6 pg/mL
- ATP reduction at 30 min CT ([3]; produced water, Example 17, 29 mg/L, listed as Sodium Peracetate Oxidant): 99.0%
- ATP (pg/mL), at 30 min CT ([3]; produced water, Example 17, 29 mg/L, untreated 135): 1.4 pg/mL
- ATP reduction at 30 min CT [3, 6]: 99.3%
- ATP reduction at 30 min CT ([3]; produced water, Example 17, 52 mg/L, listed as Sodium Peracetate Oxidant): 99.3%
- ATP (pg/mL), at 30 min CT ([3]; produced water, Example 17, 52 mg/L, untreated 135): 0.9 pg/mL
- ATP (pg/mL), at 30 min CT [3, 7]: 1.4 pg/mL
- ATP reduction at 30 min CT [3, 7]: 99.0%
- ATP (pg/mL), at 15 min CT ([3]; produced water, Example 18, 0.30 mmol/L oxidant, untreated 135): 4.1 pg/mL
- ORP, rapid initial increase ([4]; Piceance produced water, pH 7.00, 22 °C, 100 mg/L initial dose): ~800 mV vs SHE
- ORP after decline ([4]; Piceance produced water, pH 7.00, 22 °C, 100 mg/L initial dose, after 120 minutes): about 470 mV
- ORP, later level [4, 8]: about 1040 mV vs SHE
- ORP, rapid initial increase [4, 8]: about 890 mV vs SHE
- ORP ([4]; Piceance produced water, first 26 mg/L dose of sequential dosing): more than 800 mV vs SHE
- ORP maximum ([4]; Piceance produced water, single dose 78 mg/L (60 mg/L as PAA)): 870 mV vs SHE
- ORP ([4]; Piceance produced water, single dose 78 mg/L, in less than 60 minutes): below 600 mV vs SHE
- ORP (mV vs SHE) ([4]; contact time 3 minutes): 701 mV vs SHE
- ORP (mV vs SHE) ([4]; contact time 13 minutes): 581 mV vs SHE
- ORP (mV vs SHE) ([4]; contact time 35 minutes): 446 mV vs SHE
- ORP (mV vs SHE) ([4]; contact time 90 minutes): 420 mV vs SHE
- ORP of water drawn from the frac tanks ([4]; frac on the fly make-up water, about 15 minute contact time): less than 500 mV
- ORP (mV vs SHE), maximum ([4]; Example 17, 29 mg/L): over 700 mV vs SHE
- ORP (mV vs SHE), maximum ([4]; Example 17, 29 mg/L plus 5 mg/L floc aid): over 700 mV vs SHE
- ORP (mV vs SHE), maximum ([4]; Example 17, 29 mg/L plus 5 mg/L floc aid, listed as Sodium Peracetate Oxidant): 770 mV vs SHE
- ORP (mV vs SHE), maximum ([4]; Example 17, 29 mg/L, listed as Sodium Peracetate Oxidant): 766 mV vs SHE
- ORP (mV vs SHE), maximum ([4]; Example 17, 52 mg/L): over 800 mV vs SHE
- ORP (mV vs SHE), maximum ([4]; Example 17, 52 mg/L, listed as Sodium Peracetate Oxidant): 809 mV vs SHE
- ORP (mV vs SHE), maximum ([4]; Example 18, 0.30 mmol/L oxidant): 766 mV vs SHE
- APB (cells/mL and log reduction) ([5]; 29 mg/L plus 5 mg/L floc aid): 5 log (no grow
- APB (cells/mL and log reduction) ([5]; 29 mg/L, untreated >>10,000 cells/mL): 5 log (no grow
- APB (cells/mL and log reduction) ([5]; 52 mg/L): 5 log (no grow
